# Experimental data: patent publication US20120128580A1, “PRESELECTION OF SUBJECTS FOR THERAPEUTIC TREATMENT WITH ELESCLOMOL BASED ON HYPOXIC STATUS” (SYNTA PHARMACEUTICALS CORP., priority 2010, published 2012)
# Experiments:
# [1] = tested on: Stave IV Metastatic melanoma; test: Phase III study, elesclomol in combination with paclitaxel versus paclitaxel alone; type: in vivo, human; conditions: for Median (months) Overall Survival / Median (months) PFS: Phase III; for Median Progression Free Survival: Phase III metastatic melanoma, chemotherapy-naive
# Method: Further, a Phase III study was performed to test elesclomol in combination with paclitaxel versus paclitaxel alone in chemotherapy-naïve subjects with Stave IV Metastatic melanoma. Subjects with metastatic melanoma were randomized with a ratio of 1:1 to either the treatment arm (elesclomol 213 mg/m^2 in combination with paclitaxel 80 mg/m^2) or the control arm (paclitaxel 80 mg/m^2 alone) once per week for the first three weeks, followed by one week off (i.e., a 28 day cycle with dosing on days 1, 8, and 14) with the 28 day dosing cycle repeated until tumor progression, likely resulting in complete clearance of elesclomol between doses. The population enrolled into the study was to have baseline LDH levels limited to 2 times upper limit of normal (ULN) values.
# [2] = tested on: Stage 1V Metastatic melanoma; test: Phase I/II study, elesclomol in combination with paclitaxel; type: in vivo, human; conditions: i.v. weekly for three weeks of 28 day cycle
# Method: For example, a Phase I/II study was performed to test elesclomol in combination with paclitaxel in patients with Stage 1V Metastatic melanoma. Subjects were dosed intravenously with 80 mg/m^2 of paclitaxel either with or without 213 mg/m^2 of elesclomol once per week for the first three weeks, followed by one week off (i.e., a 28 day cycle with dosing on days 1, 8, and 14) with the 28 day dosing cycle repeated until tumor progression, likely resulting in complete clearance of elesclomol between doses.
compound,measurement,setting,value
"CC(=O)O[C@H]1C(=O)[C@@]2(C)[C@H]([C@H](OC(=O)c3ccccc3)[C@]3(O)C[C@H](OC(=O)[C@H](O)[C@@H](NC(=O)c4ccccc4)c4ccccc4)C(C)=C1C3(C)C)[C@]1(OC(C)=O)CO[C@@H]1C[C@@H]2O [P alone, paclitaxel]",Median (months) Overall Survival,[1]; High LDH (>1 × ULN),8.1 months
same,Median (months) PFS,[1]; High LDH (>1 × ULN),1.9 months
same,Median Progression Free Survival,[1]; High LDH,1.9 (95% CI: 1.8-2.6) months
same,Median (months) Overall Survival,[1]; ITT Population,11.7 months
same,Median (months) PFS,[1]; ITT Population,1.9 months
same,Median (months) PFS,[1]; Low LDH (≦0.8 × ULN),2.1 months
same,Median (months) Overall Survival,"[1]; Low LDH (≦0.8 × ULN), listed as Paclitaxel alone",Not Ach.
same,Median (months) Overall Survival,"[1]; Low LDH (≦0.8 × ULN), listed as paclitaxel alone",not achieved
same,Median Progression Free Survival,[1]; Low LDH,2.1 (95% CI: 1.9-3.6) months
same,Median (months) Overall Survival,[1]; Normal LDH (≦1 × ULN),14.5 months
same,Median (months) PFS,[1]; Normal LDH (≦1 × ULN),2.1 months
same,Median Progression Free Survival,[2]; High LDH,1.6 (95% CI: 1.0-3.0) months
same,Median Progression Free Survival,"[2]; High LDH, listed as paclitaxel",1.6 months
same,Median Progression Free Survival,[2]; Low LDH,3.5 (95% CI: 1.6-7.3) months
same,Median Progression Free Survival,"[2]; Low LDH, listed as paclitaxel",3.5 months
